# Laboratory results published in US8653132B2, “Phosphaplatins and their use in pharmaceutical compositions” (Ohio University, priority 2007, dated 2014).
# Like-named read-outs stand apart in the source and are kept apart here.
# Legend:
# [1] = pKa from 31P chemical shift as a function of pH; type: physicochemical
# [2] = tested on: A2780 cells; assay: Cellular accumulation of platinum by atomic absorption, A2780; type: cell-based, human; settings: for Cellular accumulation of platinum: 1 hr exposure
# Procedure: (§1) Platinum content was quantitatively estimated on a Graphite Furnace Atomic Absorption Spectrometer (Perkin Elmer AA-600) from calibration curves established by using cisplatin or pyrodach-2 in water. Cells (5×10^6) were seeded in T75 cm^2 flasks. After 24 h, these cells were then treated with the different concentrations (0, 10, 20, 30 and 50 μM) of cisplatin and pyrodach-2. After 1 hr exposure with the platinum complexes, the drug-containing medium was removed and the cells were washed with ice-cold phosphate-buffered saline (PBS). The cells were then trypsinized and centrifuged into a pellet. Cell pellets were digested in concentrated HNO3 and H2O2 prior to analysis, according to the method of McGahan. Data reported in Table 4 were collected from three independent experiments each was carried out in duplicate. For the cisplatin accumulation, data were obtained from triplicate runs from a single sample at a given concentration.
# [3] = tested on: A2780/C30 cells; assay: Cellular accumulation of platinum by atomic absorption, A2780/C30; type: cell-based, human; settings: 1 hr exposure
# Procedure: as §1
# [4] = tested on: A2780/C30 cells; assay: as above; type: cell-based, human; settings: at its IC50 value
# [5] = tested on: CHO cell line; assay: Cytotoxic assay, CHO; type: cell-based
# Excerpt: In some embodiments, the complexes of the present invention are useful for treating various cancers. […] The complexes of the present invention are particularly desirable because they may have reduced toxicity in vivo.
# [6] = Stability in aqueous solution by 31P NMR; type: physicochemical
# Procedure: Starting with the bottom spectrum in each panel, spectra were recorded at 24 hour time intervals.
# At neutral pH, the isolated monomeric Pt(II) and Pl(IV) complexes of the present invention are stable. […] However, in the same time interval, slow deligation due to the release of the pyrophosphate ligand was evident at pH 4.2 by the appearance of the free pyrophosphate signal at −10.3 ppm. At the same time, an insoluble pyrophosphate-bridged dinuclear platinum(II) product was formed.
# [7] = tested on: UMSCC10b/15s (Cisplatin-resistant) cells; assay: Cytotoxicity in head and neck cancer cells, cisplatin-resistant; type: cell-based, human
# Procedure: The UMSCC10b (Cisplatin-sensitive) and UMSCC10b/15s (Cisplatin-resistant) cell lines derived from human head and neck squamous cell cancer were lines were obtained from Dr. Stephen B. Howell of the University of California, Dan Diego. Cells were cultured in 1640 RPMI with 10% fetal bovine serum, 100 units/ml penicillin and 100 μg/m1 of streptomycin. Cells were seeded into 24-well plates with approximately 20,000 cells/500 μl of media in each well plate. Cells were exposed to dach-2 with variable concentrations ranging from 1.12 μM to maximum of 72 μM. Stock solutions of dach-2 complex were prepared and aliquots of these solutions were added to make those effective concentrations. Cells were then allowed to grow for 72 hours. Twelve different concentrations were used in this study. Each concentration had one control for a total of 12 controls.
# [8] = tested on: A2780/C30 cisplatin-resistant ovarian cell line; assay: Clonogenic assay, cisplatin/carboplatin-resistant C30; type: cell-based, human; settings: 1 hour drug treatment, 1 week colony formation
# Procedure: A cisplatin-resistant Ovarian cell line (C30) (Hamaguchi, et al., 1993), obtained from Dr. Thomas Hamilton (Fox Chase Cancer Center, Philadelphia, Pa.), was treated with the monomeric platinum complexes of the present invention (shown in FIG. 2). This cell line is also cross resistant to carboplatin. Cells were cultured on monolayer using RPMI 1640 supplemented with 10% fetal bovine serum, 2 mM glutamine, 0.25 units/mL insulin and penicillin/streptomycin in a 37 degrees C. incubator continuously gassed with 5% CO2. Cells were subcultured using 0.025% trypsin in HBSS to maintain cells in exponential growth.
# IC50 values were determined using a clonogenic assay. Briefly, 500 C30 cells from a single cell suspension were plated onto 60 mm Petri plates 24 hours before drug treatment to permit cell attachment. On the day of drug treatment, the medium was decanted and replaced with the drug and these treated cells were placed back into the 37 degrees C. incubator for 1 hour. Triplicate plates were set up for each drug concentration. After the one hour drug treatment, the drug containing medium was decanted and replaced with fresh medium. These plates were returned to the 37 degrees C. incubator for 1 week for colony formation. Colonies were fixed and stained using 2% crystal violet in absolute methanol. Colonies containing more than 50 cells were scored. The number of scored colonies from the triplicate plates was averaged and this number was divided by the number of cells plated to obtain a value for the fraction of cells forming colonies. These values for fraction of cells forming colonies were then corrected for plating efficiency by dividing them by the number of cells forming colonies in plates that were not treated with drug.
# [9] = calculated from phosphorus-31 chemical shifts
structure (smiles),measurement,setting,value
"NC1CCCCC1N.O=P([O-])(O)OP(=O)([O-])O.[Pt+2] [dach-2, (Trans-1,2-cyclohexanediamine)(dihydrogenpyrophosphato)platinum(II)]",pKa1,[1]; [9],2.6 ± 0.2
same,pKa2,[1]; [9],4.4 ± 0.2
same,pKa1 (value in parentheses),"[1]; second value printed in parentheses under pKa1, not explained",(3.3 ± 0.1)
same,Cellular accumulation of platinum,"[2]; A2780, 10 μM",1.00 ± 0.10 ng/10^6 cells
same,Cellular accumulation of platinum,"[2]; A2780, 20 μM",1.50 ± 0.30 ng/10^6 cells
same,Cellular accumulation of platinum,"[2]; A2780, 30 μM",3.00 ± 1.00 ng/10^6 cells
same,Cellular accumulation of platinum,"[2]; A2780, 50 μM",5.00 ± 0.30 ng/10^6 cells
same,accumulation in A2780 cells,[2]; at 10 μM concentration,1.0 ng Pt/10^6 cells
same,Cellular accumulation of platinum,"[3]; A2780/C30, 10 μM",0.10 ± 0.08 ng/10^6 cells
same,Cellular accumulation of platinum,"[3]; A2780/C30, 20 μM",1.00 ± 0.02 ng/10^6 cells
same,Cellular accumulation of platinum,"[3]; A2780/C30, 30 μM",1.00 ± 0.02 ng/10^6 cells
same,Cellular accumulation of platinum,"[3]; A2780/C30, 50 μM",2.00 ± 0.10 ng/10^6 cells
same,platinum accumulation in the resistant cell lines,[4],1.4 ng Pt/10^6 cells
same,IC50,[5],35 ± 5 µM
same,decomposition / deligation at pH 4.2,"[6]; pH 4.2, six days",considerable decomposition
same,decomposition at pH 8,"[6]; pH 8, up to six days",no decomposition
same,IC50,"[7]; 72 hours growth, read-out: IC50 for UMSCC10b/15s (Cisplatin-resistant)",5 µM
same,IC50,"[7]; FIG. 9 legend, read-out: IC50 cisplatin-resistant head and neck cancer cells",< 5 µM
same,IC50,[8],48 ± 5 µM
